Source: patent US9549941B2, “Compositions and methods for treating hepatitis C virus” (priority 2011, dated 2017)

What was measured:
[1] = ELECTRON Grade 3/4 hematologic (laboratory) abnormalities; assay type: in vivo, human; conditions: Groups 1-6 (GT2/GT3 Tx-naive)
HCV NS5B S282T = assay: GS-7977 resistance in Phase 2 clinical studies, population and deep sequencing of NS5B; assay type: in vivo, human; conditions: one GT2b patient, relapse 4 weeks after 12 weeks of monotherapy
[2] = tested on: 1b con-1 sub-genomic replicon, NS5B S282T; assay type: cell-based, hepatitis C virus; conditions: genotype 1b, S282T from corresponding wild-type
Procedure: (§1) (Lam et al., J. Virology (2011) 85(23): 12334-12342; Lam et al., Antimicrob. Agents Chemother. (2012) 56(6): 3359-3368.) S282T mutations in NS5B were created by site-directed mutagenesis in 1a-H77, 1b con-1, and 2a JFH1 sub-genomic replicons. 1b con-1-based chimeric replicons containing 2b, 3a, 4a, 5a, or 6a NS5B were also engineered to harbor the S282T mutation. […] Relative percentages of mutant and WT were assessed by deep sequencing.

[3] = tested on: 1b con-1-based chimeric replicon containing 4a NS5B S282T; assay type: cell-based, hepatitis C virus; conditions: genotype 4a, S282T from corresponding wild-type
Procedure: as §1

[4] = tested on: 1a-H77 sub-genomic replicon, wild-type NS5B; assay: Transient replicon assay; assay type: cell-based; conditions: Hepatitis C virus, read-out: EC50 WT
Procedure: as §1

[5] = tested on: 1b con-1-based chimeric replicon containing 5a NS5B, wild-type; assay: Transient replicon assay; assay type: cell-based; conditions: Hepatitis C virus, read-out: EC50 WT
Procedure: as §1

[6] = tested on: mixture of 50% S282T and 50% WT in GT2a replicons; assay: Long-term passaging study with deep sequencing; assay type: cell-based, hepatitis C virus; set-up: population mutant S282T: concentration or dose not given beside the values; conditions: over fifteen days
Description: as §1, with “In vitro studies have shown that S282T is the primary mutation selected by GS-7977 in HCV genotype 1a, 1b and 2a replicon cells. (Lam” for “(Lam”
(See also Han et al., 63rd Annual Meeting of the American Association for the Study of Liver Diseases, Poster 1078, Nov. 11, 2012.)

Compound: CC(C)OC(=O)[C@H](C)N[P@](=O)(OC[C@H]1O[C@@H](n2ccc(=O)[nH]c2=O)[C@](C)(F)[C@@H]1O)Oc1ccccc1 [GS-7977, (S)-isopropyl 2-(((S)-(((2R,3R,4R,5R)-5-(2,4-dioxo-3,4-dihydropyrimidin-1(2H)-yl)-4-fluoro-3-hydroxy-4-methyltetrahydrofuran-2-yl)methoxy)(phenoxy)phosphoryl)amino)propanoate]
- Alanine aminotransferase Grade 3: n [1]: 0
- Hemoglobin Grade 3: n [1]: 0
- INR Grade 3: n [1]: 0
- Lymphocytes Grade 3: n [1]: 0
- Lymphocytes Grade 4: % [1]: 10%
- Lymphocytes Grade 4: n [1]: 1
- Neutropenia Grade 3: n [1]: 0
- Neutropenia Grade 4: n [1]: 0
- White blood cells Grade 3: n [1]: 0
- S282T at relapse by deep sequencing (HCV NS5B S282T): 99%
- Fold Change [2]: 8.8
- Fold Change [3]: 6.1
- EC50 [4]: 25.1 nM
- EC50 [5]: 9.91 nM
- population mutant S282T [6]: 92%
